Data set [1] is described as follows: Measurement of the imperceptible water loss (IWL) with an evaporimeter (Servomed). To be noted: compound at 1% in dichloromethane/methanol (2/1 v/v), applied on delipidated stratum corneum; measured 20 hours after application. As to the method: Measurement of the imperceptible water loss (IWL)
This measurement was carried out using an evaporimeter (Servomed) which quantitatively determines the evaporation of water, that is transportation of water by diffusion, from a stratum corneum sample which seals a cylindrical capsule containing water, the whole assembly being placed in a chamber with controlled relative temperature and controlled relative humidity.
Sensors made it possible to measure the partial vapour pressure of water at two points situated at different distances from the sample.
The partial vapour pressure of water gradient between the two points was thus determined and therefore the degree of evaporation in accordance with Fick's law.
This measurement is carried out for:
The compounds were prepared in the proportion of 1% in a dichloromethane/methanol (2/1 v/v) mixture and then applied on pieces of delipidated stratum comeum.
The imperceptible water loss (IWL) for each compound was measured 20 hours after application.

Take `CCCCCCCCCCCC(=O)N(C)C[C@H](O)[C@@H](O)[C@H](O)[C@H](O)CO` [Reference A, N-dodecanoyl-N-methyl-D-glucamine]: the “I.W.L. (imperceptible water loss)” value in data set [1] is −11 +/− 3.
Still for that read-out and setting: next, `CCCCCCCCCCCCOC(=O)N(C)C[C@H](O)[C@@H](O)[C@H](O)[C@H](O)CO` [Reference B, N-dodecyloxycarbonyl-N-methyl-D-lucamine]: −9 +/− 2.
`CCCCCCCCNC(=O)N(C)C[C@H](O)[C@@H](O)[C@H](O)[C@H](O)CO` [Example 8, N-octylaminocarbonyl-N-methyl-D-glucamine] yielded a melting point of 111.4 °C.
As to `CCCCCCCCCCCCNC(=O)N(C)C[C@H](O)[C@@H](O)[C@H](O)[C@H](O)CO` [Example 1, N-dodecylaminocarbonyl-N-methyl-D-glucamine], the melting point was determined as 116.8 °C. Besides, the “I.W.L. (imperceptible water loss)” value in data set [1] is −21 +/− 2.

The values are drawn from patent US20010007675A1, “Cosmetic and dermatological compositions containing aminoalchohol derivatives containing a urea functional group and uses thereof” (L'OREAL, priority 1996, published 2001).
